# Data taken from patent US20230095618A1, “OIL-IN-WATER EMULSION COMPRISING A SOLID LIPID MATERIAL” (priority 2020, published 2023).
# Tested on: yellow fever mosquito, Aedes aegypti Rockefeller strain
# Assay: Repulsive effect on mosquitoes: number of landings on a treated warm glass plate in a cage
# Assay type: in vivo
# Conditions: reference actives diluted at 12.5% in ethanol; for number of mosquito landings: glass plate at 34° C., cage with 30 unfed A. aegypti females
# Experimental: Controlling efficacy was tested against the yellow fever mosquito, Aedes aegypti Rockefeller strain. […] Observations of controlling efficacy were made on host-seeking females of uniform age, 5 to 12 days post-eclosion from pupae. Tested hungry females had access to 10% sugar solution but were not blood-fed. The testing protocol was adapted from the method described in Krober et al. (2010; doi: 10.2987/10-6044.1). A controlled amount […] of stimulus was deposited in the center of a sandblasted glass plate (60 mm diam) and maintained at 34° C. The glass plate was then placed in a polycarbonate cage (200×260×180 mm) containing 30 A. aegypti unfed female mosquitoes. The number of landings of the mosquitoes as a function of time was monitored using a camera and allowed to evaluate the repulsive effect of the stimulus. Stimuli tested were water, ethanol or diluted insect repellent active as controls and samples according to example 1. When only water is applied onto the glass surface, the average number of mosquitoes landing is about 63. The reference sample consisting of pure IR3535® diluted at 12.5% in ethanol reduces the number of landing from about 63 landings in the control test to about 12 landings 2 hrs after application (81% reduction), 15 after 4 hrs (−76%) and 30 after 6 hrs (−52%). Emulsion 1 according to example 1 reduces the number of landings from about 63 landings in the control test to about 12 landings 2 hrs after application (81% reduction), 4 after 4 hrs (−93%) and 3 after 6 hrs (−95%). […] Emulsion 2 according to example 1 reduces the number of landings from about 63 landings in the control test to about 8 landings 2 hrs after application (87% reduction), 2 after 4 hrs (−97%) and 4 after 6 hrs (−93%).
Structure (SMILES),number of mosquito landings (2 hrs after application),reduction of the number of landings versus water control (2 hrs after application) [%],number of mosquito landings (after 4 hrs) [landings],change of the number of landings versus water control (given as negative %) (after 4 hrs) [%],number of mosquito landings (after 6 hrs) [landings],change of the number of landings versus water control (given as negative %) (after 6 hrs) [%]
"CCN(CC)C(=O)c1cccc(C)c1 [DEET, N,N-diethyl-3-methylbenzamide]",about 15 landings,72,~10,−81,~19,−65
"CCCCN(CCC(=O)OCC)C(C)=O [IR3535®, ethyl 3-(acetyl(butyl)amino)propanoate]",about 12 landings,81,~15,−76,~30,−52
